{
  "source": "patent US4252795A",
  "about": "“N-substituted dimeric cyclopeptide derivatives and preparation thereof” (Ayerst McKenna and Harrison Inc., priority 1978, dated 1981)",
  "key": {"Klebsiella pneumoniae": {"tested_on": "Klebsiella pneumoniae", "test": "serial broth dilution, growth inhibition", "type": "cell-based", "settings": "nutrient broth, incubated at 37° C. for 2 days, examined for presence of growth", "experimental": "(§1) Grove and W. A. Randall in \"Assay Methods of Antibiotics\", Med. Encycl. Inc., [New York] 955. […] 289.\n(§2) For example, by employing a test like the serial broth dilution, see Grove and Randall, cited above, in which dilutions of the compounds of this invention in nutrient broth are inoculated with the microorganisms or fungi, described above, incubated at 37° C. for 2 days, respectively, and examined for the presence of growth, it may be shown that the preferred compounds N'N'-dicyclohexyl-α,α'-diisopropyl-2,5,8,11,14,17-hexaoxo-1,4,7,10,13,16-hexaazacyclooctadecane-1,10-diacetamide, isomer L, (Example 1), N'N'-dicyclohexyl-α,α'-diisopropyl-2,5,8,11,14,17-hexaoxo-1,4,7,10,13,16-hexaazacyclooctadecane-1,10-diacetamide, isomer M, (Example 1), and α,α'-diphenyl-N'N'-dicyclohexyl-2,5,8,11,14,17-hexaoxo-1,4,7,10,13,16-hexaazacyclooctadecane-1,10-diacetamide, isomer L, (Example 1) are able to inhibit growth totally in this system of Klebsiella pneumoniae and Serratia marcescens at a concentration of 100 mcg/ml."}, "Serratia marcescens": {"tested_on": "Serratia marcescens", "test": "serial broth dilution, growth inhibition", "type": "cell-based", "settings": "nutrient broth, incubated at 37° C. for 2 days, examined for presence of growth", "experimental": "as §1, §2"}},
  "data": [
    {"smiles": "O=C1CNC(=O)CN(C(C(=O)NC2CCCCC2)c2ccccc2)C(=O)CNC(=O)CNC(=O)CN(C(C(=O)NC2CCCCC2)c2ccccc2)C(=O)CN1", "note": "(stereo not drawn) [α,α'-diphenyl-N,N'-dicyclohexyl-2,5,8,11,14,17-hexaoxo-1,4,7,10,13,16-hexaazacyclooctadecane-1,10-diacetamide]", "values": [
      {"measurement": "concentration able to inhibit growth totally", "setting": "Klebsiella pneumoniae", "result": 100, "unit": "µg/mL"},
      {"measurement": "concentration able to inhibit growth totally", "setting": "Serratia marcescens", "result": 100, "unit": "µg/mL"}
    ]},
    {"smiles": "CC(C)C(C(=O)NC1CCCCC1)N1CC(=O)NCC(=O)NCC(=O)N(C(C(=O)NC2CCCCC2)C(C)C)CC(=O)NCC(=O)NCC1=O", "note": "(stereo not drawn) [N,N'-Dicyclohexyl-α,α'-diisopropyl-2,5,8,11,14,17-hexaoxo-1,4,7,10,13,16-hexaazacyclooctadecane-1,10-diacetamide]", "values": [
      {"measurement": "concentration able to inhibit growth totally", "setting": "Klebsiella pneumoniae", "result": 100, "unit": "µg/mL"},
      {"measurement": "concentration able to inhibit growth totally", "setting": "Serratia marcescens", "result": 100, "unit": "µg/mL"}
    ]}
  ]
}
